According to patent US20010049373A1, “Materials and methods for killing nematodes and nematode eggs” (priority 2000, published 2001):

Experiments:
Caenorhabditis elegans [1] = assay: HTS runs (initial and follow-up): mOD, % Run and visual score (Table 3); type: in vivo; set-up: key to Initial HTS Run Visual Score / Follow-up HTS Run Visual Score: Dead: only stiff L1s (no movement); Dead (L4): worms are dead, but at a later larval stage; majority of worms are L1 (based on size); majority of worms are L2 (based on size); majority of worms are L3 (based on size); majority of worms are L4 (based on size); AD: majority of worms are adult; #AD: 5 adult worms or less; B!: sterile (0-25 progeny); B: low broodsize (25-100 progeny); ˜B: moderate broodsize (100-250 progeny); <: reduced broodsize (250-500 progeny); OK: no effect (˜1000+ progeny)
Experimental: (§1) The nematicidal activity of anthelmintic Compositions 48-118 were determined in accordance with the procedure outlined in Example 2.

Caenorhabditis elegans [2] = assay: C. elegans L1 larvae dose-response, 5 day visual viability score (Examples 2 and 7); type: in vivo; set-up: key: Dead: only stiff L1s (no movement); Dead (L4): worms are dead, but at a later larval stage; majority of worms are L1 (based on size); majority of worms are L2 (based on size); majority of worms are L3 (based on size); majority of worms are L4 (based on size); AD: majority of worms are adult; #AD: 5 adult worms or less; B!: sterile (0-25 progeny); B: low broodsize (25-100 progeny); ˜B: moderate broodsize (100-250 progeny); <: reduced broodsize (250-500 progeny); OK: no effect (˜1000+ progeny); conditions: day 5, Table 3; for 5 Day Visual Score V6: 0.3 μM (procedure of Example 2); for 5 Day Visual Score V5: 0.9 μM (procedure of Example 2); for 5 Day Visual Score V4: 2.6 μM (procedure of Example 2); for 5 Day Visual Score V3: 7.8 μM (procedure of Example 2); for 5 Day Visual Score V2: 23.3 μM (procedure of Example 2); for 5 Day Visual Score V1: 70 μM (procedure of Example 2)
Experimental: Caenorhabditis elegans adults were grown on Nematode Growth Medium (NGM) until they produced eggs, then the adults were removed.
The eggs were allowed to hatch, and the L1 larvae collected. See The Neniatode Caenorhabditis elegans (1988) Cold Spring Harbor Laboratory Press. Using a Matrix Programmable Pipette, the L1s were distributed into 96-well tissue culture plates, 20 L1 in 50 μl NGM per well. Antibiotic/Antimyotic was added to each well, and 1% by weight E. coli strain HB101. The subject anthelmintic compounds were stored at 5 mM in 100% DMSO. 0.7 μl of compounds 1-31 were added to the left-most column of wells to yield a final concentration of 70 μM in 1.4% DMSO, with 1.4% DMSO only as the control. The compounds were then subjected to 5 more 3-fold dilutions from left to right to yield 6 column concentrations of 70 μM, 23.3 μM, 7.8 μM, 2.6 μM, 0.9 μM, and 0.3 μM. Plates were stored in air-tight Rubbermaid plastic boxes at 20° C. The nematodes had cleared all control wells by day 4, and nematode viability was scored by visual examination under a 100× dissecting microscope on day 5. A visual viability scoring system was used as follows:
If several classes of worms exist in a well, then all classes are scored. If adults are present, then the brood score is also recorded. Thus, “L1/L2” would mean a mixture of L1's and L2's are present in the well. “L4/#AD/B” would mean that a mixture of L4's and adults are resent in the well. The “#AD” would mean that there are 6 or less adults, and the “B” would mean that there were 100 progeny or less.
Column VI has a compound concentration of 70 μM with sequential 3-fold dilutions reported in columns V2, V3, V4, V5, and V6, respectively, such that the V6 concentration was 0.3 μM.
as §1

Structure (SMILES) | Follow-up HTS Run % Run (Caenorhabditis elegans [1]) [%] | Follow-up HTS Run Visual Score (Caenorhabditis elegans [1]) | Follow-up HTS Run mOD (Caenorhabditis elegans [1]) [mOD] | Initial HTS Run % Run (Caenorhabditis elegans [1]) [%] | Initial HTS Run Visual Score (Caenorhabditis elegans [1]) | Initial HTS Run mOD (Caenorhabditis elegans [1]) [mOD] | 5 Day Visual Score V6 (Caenorhabditis elegans [2]) | 5 Day Visual Score V5 (Caenorhabditis elegans [2]) | 5 Day Visual Score V4 (Caenorhabditis elegans [2]) | 5 Day Visual Score V3 (Caenorhabditis elegans [2]) | 5 Day Visual Score V2 (Caenorhabditis elegans [2]) | 5 Day Visual Score V1 (Caenorhabditis elegans [2])
CCC(C)Nc1cc(Oc2ccc3oc4ccccc4c3c2)ncn1 (stereo not shown) [AKC 349] | 103 | B (low broodsize (25-100 progeny)) | 139 | 127 | 2AD/B! | 247 | OK (no effect (˜1000+ progeny)) | OK (no effect (˜1000+ progeny)) | OK (no effect (˜1000+ progeny)) | #AD/˜B | OK (no effect (˜1000+ progeny)) | 
CCN(C)c1cc(Oc2ccc3ccccc3c2)ncn1 [AKC 350] | 101 | Dead | 136 | 126 | Dead | 245 | OK (no effect (˜1000+ progeny)) | OK (no effect (˜1000+ progeny)) | OK (no effect (˜1000+ progeny)) |  | L1 | L1
Fc1ccc(F)c(CNc2cc(Oc3cccc(Cl)c3)ncn2)c1 [AKC 354] | 108 | B (low broodsize (25-100 progeny)) | 146 | 137 | 1AD/B | 267 | < (reduced broodsize (250-500 progeny)) | OK (no effect (˜1000+ progeny)) | < (reduced broodsize (250-500 progeny)) | #AD/˜B |  | Dead
FC(F)(F)c1ccc(CNc2cc(Oc3cccc(Cl)c3)ncn2)cc1 [AKC 356] | 122 | L2 | 165 | 139 | Dead | 272 | < (reduced broodsize (250-500 progeny)) | OK (no effect (˜1000+ progeny)) | OK (no effect (˜1000+ progeny)) |  | Dead | Dead
COc1ccc(Oc2cc(NCc3ccc(C(F)(F)F)cc3)ncn2)cc1 [AKC 357] | 98 | L4/AD/B! | 132 | 115 | 3AD/B | 224 | OK (no effect (˜1000+ progeny)) | OK (no effect (˜1000+ progeny)) | OK (no effect (˜1000+ progeny)) |  |  | Dead
Fc1ccc(Oc2cc(NCc3ccc(C(F)(F)F)cc3)ncn2)cc1 [AKC 358] | 113 | L3-Dead L3 | 153 | 129 | Dead | 252 | OK (no effect (˜1000+ progeny)) | OK (no effect (˜1000+ progeny)) | OK (no effect (˜1000+ progeny)) |  | Dead | Dead
FC(F)(F)c1ccc(CNc2cc(Oc3ccccc3Cl)ncn2)cc1 [AKC 360] | 112 | L4/AD/B! | 151 | 139 | 1AD/B!-No P | 272 | OK (no effect (˜1000+ progeny)) | OK (no effect (˜1000+ progeny)) | OK (no effect (˜1000+ progeny)) | OK (no effect (˜1000+ progeny)) | Dead | Dead
CN(c1cc(Oc2ccc(-c3ccccc3)cc2)ncn1)C1CCCCC1 [AKC 363] | 122 | Dead | 165 | 141 | Dead | 275 | OK (no effect (˜1000+ progeny)) | OK (no effect (˜1000+ progeny)) | OK (no effect (˜1000+ progeny)) | ˜B (moderate broodsize (100-250 progeny)) | < (reduced broodsize (250-500 progeny)) | Dead
Clc1cccc(CNc2cc(Oc3cccc(Cl)c3)ncn2)c1 [AKC 364] | 108 | L4/AD/B! | 146 | 121 | 4AD/˜B | 236 | OK (no effect (˜1000+ progeny)) | OK (no effect (˜1000+ progeny)) | < (reduced broodsize (250-500 progeny)) | ˜B (moderate broodsize (100-250 progeny)) |  | Dead(L2/L3)
Fc1ccc(Oc2cc(NCc3ccccc3F)ncn2)cc1 [AKC 367] | 91 | B (low broodsize (25-100 progeny)) | 123 | 123 | 2AD/B | 239 | OK (no effect (˜1000+ progeny)) | OK (no effect (˜1000+ progeny)) | < (reduced broodsize (250-500 progeny)) | < (reduced broodsize (250-500 progeny)) | < (reduced broodsize (250-500 progeny)) | L1
Fc1ccc(Oc2cc(NCc3cc(F)cc(F)c3)ncn2)cc1 [AKC 369] | 94 | B (low broodsize (25-100 progeny)) | 127 | 115 | 1AD/B | 225 | OK (no effect (˜1000+ progeny)) | OK (no effect (˜1000+ progeny)) | OK (no effect (˜1000+ progeny)) | < (reduced broodsize (250-500 progeny)) |  | Dead
CC(C)(C)OC(=O)N1CCN(c2cc(Oc3ccc(F)cc3)ncn2)CC1 [AKC 373] | 83 | B (low broodsize (25-100 progeny)) | 112 | 132 |  | 257 | OK (no effect (˜1000+ progeny)) | OK (no effect (˜1000+ progeny)) | OK (no effect (˜1000+ progeny)) |  |  | L4
CC(C)(C)OC(=O)N1CCN(c2cc(Oc3ccccc3Cl)ncn2)CC1 [AKC 374] | 114 |  | 154 | 139 | L3-Dying | 271 | OK (no effect (˜1000+ progeny)) | OK (no effect (˜1000+ progeny)) | OK (no effect (˜1000+ progeny)) | OK (no effect (˜1000+ progeny)) |  | Dead(L2/L3)
